From publication PMC13170702 (Nuclear medicine and biology, 2025)

How the values were obtained:
[1] = system: 70 other CNS binding sites; settings: at 1 μM; cited from earlier work
[2] = system: Sprague-Dawley rats; assay: GLP 14-day toxicological study; format: in vivo; settings: non-radioactive compound given on two consecutive days

SMILES | binding at 70 other CNS binding sites [1] | adverse effects [2]
NC(CC(=O)Nc1ccc2c(c1)Cc1cc(F)ccc1-2)C(=O)O (centres unmarked) | no binding | –
COC(=O)[C@@H](N)CC(=O)Nc1ccc2c(c1)Cc1cc(F)ccc1-2 [RP-115] | – | no overt adverse effects
